Common to all, as to type: cell-based, Candida tropicalis
In assay [1] the test system is ΔΔXyl2. Conditions: YNB media; for starting xylose attenuated/bioconverted by ΔΔXyl2 with co-substrate: binary mixture of xylose and co-substrate.
Assay [2] concerns ΔΔXyl2. The following applies: WSH; for starting xylose converted by ΔΔXyl2 with co-substrate: maltose value by 72 hr.
For assay [3], the system named is Y6604 (NCYC 4190). Kind of assay: Xylose utilisation of Y6604 in the presence of increased inhibitor concentrations. Conditions: high or increasing inhibitor concentrations, minimal media, shake flasks. Here is the method: FIG. 4 show graphs illustrating xylose utilisation profiles of Y6604 (NCYC 4190) in the presence of increased inhibitor concentrations. Graphs A, B, C, D, E and F represent strain performance in the presence of increasing concentrations of vanillin (VAN), transcinnamic acid (TRANSC), hydroxyl-benzaldehyde (HBA), syringaldehyde (S), furfural (F) and hydroxyl-methyl furfural (HMF) respectively. Indicated values in the legend represent concentrations in mg/100 mL. Xylose values are the mean of two replicates in minimal media in shake flasks;
Strain Y6604 (NCYC 4190) was compared with other xylose-utilizing isolates from the gut of click beetle to assess its inhibitor tolerance and xylose to xylitol conversion. […] Despite slower Y6604 (NCYC 4190) growth in corn stover hydrolysate, xylose consumption and subsequent xylitol production was largely unaffected when compared to other isolates (FIG. 2 A, B) and increased amounts of the sugar alcohol at a comparatively higher rate of production were apparent in hydrolysates obtained from Miscanthus (FIG. 2 C, D) and wheat straw (FIG. 2 E, F). Phylogenetic analysis of the D1/D2 domain confirmed strain identity to be Candida tropiclis (FIG. 3). Having observed the enhanced efficacy of Y6604 (NCYC 4190) in hydrolysates with high inhibitor loadings, the isolate's tolerance threshold to common inhibitors by measuring xylose uptake rates (FIG. 4) was then assessed.

Like-named read-outs stand apart in the source and are kept apart here.

On to `OC[C@H]1O[C@H](O[C@H]2[C@H](O)[C@@H](O)C(O)O[C@@H]2CO)[C@H](O)[C@@H](O)[C@@H]1O` (mixture of isomers) [maltose], for which, in assay [1], the “rate of xylose conversion by ΔΔXyl2 with co-substrate” value (from here on “rate of xylose conversion by ΔΔXyl2”) amounted to 0.5 g xylose per hr and the “starting xylose attenuated/bioconverted by ΔΔXyl2 with co-substrate” value is listed as 70%. For the same compound, in assay [2], the “rate of xylose conversion by ΔΔXyl2” value was 0.78 g/h and the “starting xylose converted by ΔΔXyl2 with co-substrate” value (from here on “starting xylose converted by ΔΔXyl2”) is recorded as “more than 95%”.

For the compound `O=Cc1ccc(CO)o1` [HMF, hydroxyl-methyl furfural], in assay [3], the “effect on xylose utilisation/uptake” value is recorded as “enhance pentose uptake”.

For the compound `O=C(CO)[C@@H](O)[C@H](O)[C@H](O)CO` [fructose], in assay [1], the “rate of xylose conversion by ΔΔXyl2” value is on record as “around 0.4 g xylose per hr” and the “starting xylose attenuated/bioconverted by ΔΔXyl2 with co-substrate” value worked out at 54%.

As for `O=Cc1ccco1` [furfural], the “effect on xylose utilisation/uptake” value in assay [3] is on record as “completely abolished xylose uptake”.

Take `O=C[C@H](O)[C@@H](O)[C@@H](O)[C@H](O)CO` [galactose]: the “starting xylose attenuated/bioconverted by ΔΔXyl2 with co-substrate” value in assay [1] stood at 34%. In addition, in assay [2], the “rate of xylose conversion by ΔΔXyl2” value amounted to 0.5 g/h, the “time to complete co-substrate exhaustion” value is at most 7 h and the “starting xylose converted by ΔΔXyl2” value is recorded as “more than 90%”. In addition, the “arabitol accumulation with co-substrate” value in assay [2] (compared to other potential co-substrates (FIG. 7G)) is given as “high amount of arabitol accumulation”.

Take `OCC(O)CO` [glycerol]: in assay [1], the “rate of xylose conversion by ΔΔXyl2” value is “around 0.4 g xylose per hr”. In addition, the “starting xylose converted by ΔΔXyl2” value in assay [2] is listed as “around 94%”.

For the compound `COc1cc(C=O)cc(OC)c1O` [syringaldehyde], the “effect on xylose utilisation/uptake” value in assay [3] is reported as “delayed xylose utilisation”.

As for `O=C(O)/C=C/c1ccccc1` [transcinnamic acid], the “effect on xylose utilisation/uptake” value in assay [3] is reported as “delayed xylose utilisation”.

Turning to `COc1cc(C=O)ccc1O` [vanillin], the “effect on xylose utilisation/uptake” value in assay [3] is “delayed xylose utilisation”.

Regarding hydroxyl-benzaldehyde, the “effect on xylose utilisation/uptake” value in assay [3] is reported as “delayed xylose utilisation”.

(Values after US11535872B2, “Microbial strains and uses thereof” (priority 2017, dated 2022).)
